Laboratory results published in ChEMBL document CHEMBL1153973, “Regioisomerism-dependent TLR7 agonism and antagonism in an imidazoquinoline” (Bioorg Med Chem Lett, 2009).

How the values were obtained:
[1] = target: T1, Toll-like receptor 7 (Homo sapiens, UniProt Q9NYK1); experiment: Agonist activity at TLR7 expressed in HEK293 cells assessed as increase in NF-kappaB activation at 25 ug/mL by SEAP assay; format: functional, cell-based
T1 sequence (Q9NYK1 whole entry): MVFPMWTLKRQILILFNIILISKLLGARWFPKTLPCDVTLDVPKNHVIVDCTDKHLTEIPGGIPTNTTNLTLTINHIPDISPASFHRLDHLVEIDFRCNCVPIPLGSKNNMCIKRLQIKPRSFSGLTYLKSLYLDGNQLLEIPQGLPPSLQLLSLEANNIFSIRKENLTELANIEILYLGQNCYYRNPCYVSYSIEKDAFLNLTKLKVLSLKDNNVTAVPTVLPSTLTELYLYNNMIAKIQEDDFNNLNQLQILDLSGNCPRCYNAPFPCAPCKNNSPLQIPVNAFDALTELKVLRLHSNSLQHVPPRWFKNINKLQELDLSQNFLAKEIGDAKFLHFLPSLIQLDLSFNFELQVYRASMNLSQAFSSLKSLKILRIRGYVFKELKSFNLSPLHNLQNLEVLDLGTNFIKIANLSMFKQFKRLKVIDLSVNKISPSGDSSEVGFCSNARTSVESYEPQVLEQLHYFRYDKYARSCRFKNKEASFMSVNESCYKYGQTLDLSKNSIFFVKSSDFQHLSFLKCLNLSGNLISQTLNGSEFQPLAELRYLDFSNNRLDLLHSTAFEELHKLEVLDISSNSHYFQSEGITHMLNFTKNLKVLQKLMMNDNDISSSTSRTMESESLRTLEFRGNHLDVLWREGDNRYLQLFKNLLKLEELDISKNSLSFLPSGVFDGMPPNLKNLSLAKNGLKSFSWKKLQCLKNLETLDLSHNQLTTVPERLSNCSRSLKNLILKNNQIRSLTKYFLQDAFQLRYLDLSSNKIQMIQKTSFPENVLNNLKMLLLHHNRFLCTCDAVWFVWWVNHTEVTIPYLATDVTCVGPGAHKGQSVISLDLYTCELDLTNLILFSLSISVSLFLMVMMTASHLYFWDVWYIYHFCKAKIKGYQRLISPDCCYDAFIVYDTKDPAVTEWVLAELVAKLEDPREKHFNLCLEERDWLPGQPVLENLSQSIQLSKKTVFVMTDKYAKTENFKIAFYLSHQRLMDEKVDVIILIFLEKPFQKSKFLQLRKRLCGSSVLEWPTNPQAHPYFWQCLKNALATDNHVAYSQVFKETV

[2] = target: T1, Toll-like receptor 7

Row | IC50 [1] | IC50 [2] [µM] | Compound
1 | Not Active | 25 | CCNCc1nc2c3ccccc3nc(N)c2n1CC(C)(C)O.O=C(O)C(F)(F)F.O=C(O)C(F)(F)F
2 | – | 7.5 | CCNCc1nc2c3ccccc3ncc2n1CC(C)(C)O
